The values that follow come from publication PMC12054212 (BMC Microbiology, 2025).

The target of test [1] is T1, Metallo-L1 β-lactamase (Stenotrophomonas maltophilia, UniProt B2FTM1). The test can be described thus: nitrocefin hydrolysis inhibition assay, absorbance at […] nm, positive control. It counts as biochemical.
The target in test [2] is T1, Metallo-L1 β-lactamase. In words: nitrocefin hydrolysis inhibition assay, absorbance at […] nm, […] enzyme. The class given is biochemical.

The structures appear in SMILES notation.

T1 sequence (B2FTM1 22-290): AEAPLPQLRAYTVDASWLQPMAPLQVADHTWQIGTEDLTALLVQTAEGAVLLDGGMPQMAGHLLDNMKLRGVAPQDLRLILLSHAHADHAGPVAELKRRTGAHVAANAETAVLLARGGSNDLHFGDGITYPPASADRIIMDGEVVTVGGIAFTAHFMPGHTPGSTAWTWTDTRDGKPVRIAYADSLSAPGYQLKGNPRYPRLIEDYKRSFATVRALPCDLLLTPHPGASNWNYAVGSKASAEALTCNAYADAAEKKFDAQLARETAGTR

`O=C(O)CN(CCN(CC(=O)O)CC(=O)O)CC(=O)O` [EDTA] showed an IC50 against Metallo-L1 β-lactamase [1] of 2.24 µM.
Take `Oc1c2ccccc2cc2cnc3ccccc3c12` [Benzo[j]phenanthridin-12-ol]: the IC50 on Metallo-L1 β-lactamase [2] stood at 23 µM.
